Results reported in US8222281B2, “Carboxylic acid compound” (Daiichi Sankyo Company, Limited, priority 2008, dated 2012).

Tested on: genetically obese impaired glucose tolerance rats (Crlj:ZUC-Lepr^fa/Lepr^fa rats)
Test: Oral glucose tolerance test
Type: in vivo
Conditions: Rattus norvegicus, 0.5 h; dose 0.3 mg/kg oral; glucose 2 g/kg oral 30 minutes after compound; blood glucose 30 minutes after glucose loading; vs control group; read-out: Blood glucose lowering index (%)
Procedure: Oral Glucose Tolerance Test
Commercially available genetically obese impaired glucose tolerance rats (Crlj:ZUC-Lepr^fa/Lepr^fa rats, male, 11 weeks of age at the time of use, purchased from Charles River Laboratories Japan, Inc.)
(2) Experimental Method and Results
The rats were preliminarily reared for 2 weeks by feeding them laboratory chow (FR-2, Funabashi Farm Co., Ltd.) ad libitum. Then, the rats were fasted for 15 to 18 hours and used as test animals. A suspension was prepared such that the concentration of a test compound fell within a range from 0.075 to 0.25 mg/mL using a 0.5% solution of methyl cellulose (Wako Pure Chemical Industries, Ltd.). The test compound was orally administered by gavage to the rats (6 rats in each group) at a dose of 0.3 to 1 mg/kg. To the rats in the control group, a 0.5% solution of methyl cellulose was orally administered at a dose of 4 mL/kg. The oral glucose loading was performed such that a glucose solution (Otsuka Glucose Injection 50%, Otsuka Pharmaceutical Co., Ltd.) was orally administered at a dose of 2 g/kg after 30 minutes from administration of the test compound.
The blood was collected from the tail vein of each rat, and the blood glucose level was measured after 30 minutes from the oral glucose loading using a fully automatic blood glucose meter (Glucoroder GXT, A& T Corporation), and the blood glucose lowering index (%) was calculated from the following equation.
Blood glucose lowering index (%)=[1−(blood glucose level in test compound administration group)/(blood glucose level in control group)]×100

Point of comparison: `CCO[C@@H](CC(=O)O)c1ccc(O[C@@H]2CCc3c(C4CC4)cccc32)cc1` [Example 64, (3S)-3-(4-{[(1R)-4-Cyclopropyl-2,3-dihydro-1H-inden-1-yl]oxy}phenyl)-3-ethoxypropionic acid], inhibition in vivo at 0.3 mg/kg 30%. Against it:
- CCO[C@@H](CC(=O)O)c1ccc(O[C@@H]2COc3c(OC(F)(F)F)cccc32)cc1 [Example 55, (3S)-3-Ethoxy-3-(4-{[(3S)-7-(trifluoromethoxy)-2,3-dihydro-1-benzofuran-3-yl]oxy}phenyl)propionic acid] — higher, 38%
- CCO[C@@H](CC(=O)O)c1ccc(O[C@@H]2CCc3c2ccc(F)c3C(F)(F)F)cc1 [Example 56, (3S)-3-Ethoxy-3-(4-{[(1R)-5-fluoro-4-(trifluoromethyl)-2,3-dihydro-1H-inden-1-yl]oxy}phenyl)-propionic acid] — higher, 40%
- CCO[C@@H](CC(=O)O)c1ccc(O[C@@H]2CCc3c2cc(F)cc3C(F)(F)F)cc1 [Example 61, (3S)-3-Ethoxy-3-(4-{[(1R)-6-fluoro-4-(trifluoromethyl)-2,3-dihydro-1H-inden-1-yl]oxy}phenyl)-propionic acid] — higher, 34%
- CCO[C@@H](CC(=O)O)c1ccc(O[C@@H]2CCc3c(C)cc(C)cc32)cc1 [Example 62, (3S)-3-(4-{[(1R)-4,6-Dimethyl-2,3-dihydro-1H-inden-1-yl]oxy}phenyl)-3-ethoxypropionic acid] — higher, 33%
- CCO[C@@H](CC(=O)O)c1ccc(O[C@@H]2CCc3c(C(F)F)cccc32)cc1 [Example 59, (3S)-3-(4-{[(1R)-4-(Difluoromethyl)-2,3-dihydro-1H-inden-1-yl]oxy}phenyl)-3-ethoxypropionic acid] — higher, 32%

Same assay, conditions: Rattus norvegicus, 0.5 h; dose 1 mg/kg oral; glucose 2 g/kg oral 30 minutes after compound; blood glucose 30 minutes after glucose loading; vs control group; read-out: Blood glucose lowering index (%)

Point of comparison: `CCOC(CC(=O)O)c1ccc(Oc2ccc(C#N)c3ccccc23)cc1` (centres unmarked) [Example 23, 3-{4-[(4-Cyano-1-naphthyl)oxy]phenyl}-3-ethoxypropionic acid], inhibition in vivo at 1 mg/kg 16%. Against it:
- CCO[C@@H](CC(=O)O)c1ccc(OCc2ccc(C(F)(F)F)cc2)cc1 [Example 49, (3S)-3-Ethoxy-3-(4-{[4-(trifluoromethyl)benzyl]oxy}phenyl)propionic acid] — higher, 37%
- CCO[C@@H](CC(=O)O)c1ccc(OCc2ccc(C(F)(F)F)cc2)nc1 [Example 18, (3S)-3-Ethoxy-3-(6-{[4-(trifluoromethyl)benzyl]oxy}pyridin-3-yl)propionic acid] — higher, 35%
- CCO[C@@H](CC(=O)O)c1ccc(O[C@@H]2CCc3c(OC(F)(F)F)cccc32)cc1 [Example 63, (3S)-3-Ethoxy-3-(4-{[(1R)-4-(trifluoromethoxy)-2,3-dihydro-1H-inden-1-yl]oxy}phenyl)propionic acid] — higher, 45%
- CCO[C@@H](CC(=O)O)c1ccc(O[C@@H]2CCc3c(Cl)cccc32)cc1 [Example 50, (3S)-3-(4-{[(1R)-4-Chloro-2,3-dihydro-1H-inden-1-yl]oxy}phenyl)-3-ethoxypropionic acid] — higher, 38%
- CCO[C@@H](CC(=O)O)c1ccc(O[C@@H]2CCc3c(CC)cccc32)cc1 [Example 57, (3S)-3-Ethoxy-3-(4-{[(1R)-4-ethyl-2,3-dihydro-1H-inden-1-yl]oxy}phenyl)propionic acid] — higher, 50%
- CCOC(CC(=O)O)c1ccc(OCc2ccc(Cl)c(Cl)c2)cc1 (centres unmarked) [Example 1, 3-{4-[(3,4-Dichlorobenzyl)oxy]phenyl}-3-ethoxypropionic acid] — higher, 25%
- CCOC(CC(=O)O)c1ccc(Oc2cc(Cl)ccc2Cl)cc1 (centres unmarked) [Example 25, 3-[4-(2,5-Dichlorophenoxy)phenyl]-3-ethoxypropionic acid] — higher, 39%
- CCO[C@@H](CC(=O)O)c1ccc(OCc2ccc(Cl)c(Cl)c2)cc1 [Example 16, (3S)-3-{4-[(3,4-Dichlorobenzyl)oxy]phenyl}-3-ethoxypropionic acid] — higher, 39%
- CCOC(CC(=O)O)c1ccc(OCc2ccc(C(F)(F)F)cc2)nc1 (centres unmarked) [Example 17, 3-Ethoxy-3-(6-{[4-(trifluoromethyl)benzyl]oxy}pyridin-3-yl)propionic acid] — higher, 38%
- CCO[C@@H](CC(=O)O)c1ccc(O[C@@H]2COc3c2cccc3C(F)(F)F)cc1 [Example 60, (3S)-3-Ethoxy-3-(4-{[(3S)-7-(trifluoromethyl)-2,3-dihydro-1-benzofuran-3-yl]oxy}phenyl)propionic acid] — higher, 48%
- CCO[C@@H](CC(=O)O)c1ccc(O[C@@H]2CCc3c(C)cccc32)cc1 [Example 58, (3S)-3-Ethoxy-3-(4-{[(1R)-4-methyl-2,3-dihydro-1H-inden-1-yl]oxy}phenyl)propionic acid] — higher, 35%
- CCO[C@@H](CC(=O)O)c1ccc(OC2CCc3c2cccc3C(F)(F)F)cc1 (stereo partly drawn) [Example 53, (3S)-3-Ethoxy-3-(4-{[4-(trifluoromethyl)-2,3-dihydro-1H-inden-1-yl]oxy}phenyl)propionic acid] — higher, 41%
- CCO[C@@H](CC(=O)O)c1ccc(O[C@@H]2CCc3c2cccc3C(F)(F)F)cc1 [Example 51, (3S)-3-Ethoxy-3-(4-{[(1R)-4-(trifluoromethyl)-2,3-dihydro-1H-inden-1-yl]oxy}phenyl)propionic acid] — higher, 42%
- CCOC(CC(=O)O)c1ccc(OCc2ccccc2C)cc1 (centres unmarked) [Example 20, 3-Ethoxy-3-{4-[(2-methylbenzyl)oxy]phenyl}propionic acid] — lower, 15%
- CCOC(CC(=O)O)c1ccc(Oc2cc(Cl)cc(Cl)c2)cc1 (centres unmarked) [Example 24, 3-[4-(3,5-Dichlorophenoxy)phenyl]-3-ethoxypropionic acid] — higher, 37%
- CCO[C@@H](CC(=O)O)c1ccc(O[C@H]2CCc3c(Cl)cccc32)cc1 [Example 52, (3S)-3-(4-{[(1S)-4-Chloro-2,3-dihydro-1H-inden-1-yl]oxy}phenyl)-3-ethoxypropionic acid] — lower, 15%
